From patent EP2348131A1, “Low levels of cytidine deaminase as a marker for genetic predisposition to develop cancer” (Institut Curie, priority 2010, dated 2011)

What was measured:
[1] = system: BS cells; test: Sister chromatid exchange assay in BS cells cultured with deoxynucleosides; format: cell-based, human; conditions: BS cells (BS-GFP), 25 µM dU or T in culture medium, 2 x 48 h
Protocol: The BS SV40-transformed fibroblast cell line GM08505B was cultured as previously described (Dutertre S et al., Oncogene 19, 2731-8, 2000). BS-GFP-BLM cells were obtained by transfecting BS GM08505B cells with an empty EGFP-C1 vector (Clontech, Mountain View, CA), or a EGFP-C1 vector containing the full length BLM cDNA (Eladad et al., Hum Mol Genet 14, 1351-65, 2005), respectively, using JetPEI reagent (Ozyme). After 48 hr, selection with 800 to 1600 µg/ml of G418 (Invitrogen) was applied. Individual colonies were isolated and maintained in DMEM supplemented with 800 µg/ml G418.
All cell lines were cultured in DMEM with 10% fetal calf serum (PAN laboratories) either not dialyzed (Lot P282710) or dialyzed (Lot P5940309) for nucleoside complementation experiments and dNTP assays. […]
After treatment, cells were transferred to slides and cultured in the presence of 10 µM 5-bromodeoxyuridine (Sigma) at 37°C, under an atmosphere containing 5% CO2. After 40 hours, Colchicine (Sigma) was added to a final concentration of 0.1 µg/ ml for 1 hour. Cells were incubated in hypotonic solution (1:6 (vol/vol) FCS-distilled water) and fixed with 3:1 (vol/vol) methanol-acetic acid. […] Metaphases were captured with a SONY DXC 930 P camera and SCEs or chromosomal aberrations were analyzed.

[2] = system: BLM-complemented BS cells; test: Sister chromatid exchange assay in BLM-complemented BS cells; format: cell-based, human; conditions: BLM-complemented BS cells (BS-GFP-BLM), 25 mM dU or T in culture medium, 2 x 48 h
Protocol: HeLa cells were used, as previously described (Dutertre S et al., Oncogene 19, 2731-8, 2000). HEK293 cells were cultured as HeLa cells. HeLaV cells and HeLashBLM cells, HEK293V and HEK293shBLM were obtained by transfecting HeLa and HEK cells with an empty pSM2 vector or a pSM2 vector encoding a short hairpin RNA sequence directed against BLM (Open Biosystems, clone V2HS-89234), respectively, using JetPEI reagent (Ozyme) according to the manufacturer's instructions. After 48 hours, selection with 1 to 5 µg/ ml puromycin (Invivogen) was applied for HeLa cells and with 7 to12 µg/ml puromycin for HEK cells. Individual colonies were isolated and maintained in growth medium containing 0.5 µg/ ml puromycin for Hela cells or 10µg/ml puromycin for HEK cells. For siRNAs transient transfection assays, 3-4 x 10^5 cells were seeded in 3 ml of medium in each well of a six-well plate. […]
After treatment, cells were transferred to slides and cultured in the presence of 10 µM 5-bromodeoxyuridine (Sigma) at 37°C, under an atmosphere containing 5% CO2. […] Metaphases were captured with a SONY DXC 930 P camera and SCEs or chromosomal aberrations were analyzed.

| Structure (SMILES) | SCEs frequency [1] | SCEs frequency [2] |
| --- | --- | --- |
| O=c1ccn([C@H]2C[C@H](O)[C@@H](CO)O2)c(=O)[nH]1 [dU, deoxyuridine] | significant decrease | did not affect |
| Cc1cn([C@H]2C[C@H](O)[C@@H](CO)O2)c(=O)[nH]c1=O [T, thymidine] | significant decrease | did not affect |
